According to publication PMC8296573, “Synthesis and Biological Evaluation of Fingolimod Derivatives as Antibacterial Agents” (ACS Omega, 2021):
In brackets after ≈: the same amount, converted by molar mass. Like-named read-outs stand apart in the source and are kept apart here.

Experiments:
S. aureus ATCC 25923 [1] = assay: Antibacterial activity, pre-exposure (planktonic cells and biofilm formation); assay type: cell-based, Staphylococcus aureus; details: for MIC / inhibition at 5 µM / inhibition at 10 µM / inhibition at 15 µM / inhibition at 25 µM: Staphylococcus aureus, ATCC25923; for inhibition at 5 µM / inhibition at 10 µM / inhibition at 15 µM / inhibition at 25 µM / Average inhibition %, biofilms viability / Average inhibition %, planktonic cells viability: pre-exposure, ± SD
Method in brief: (§1)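 For planktonic resazurin, 20 μM final was used: 3–10 min at RT for S. aureus and A. baumannii, 20 min at 37 °C for P. aeruginosa. Cultures had been co-incubated with compound for 18 h at 37 °C, 220 rpm. Biofilms were then assessed by resazurin and crystal violet.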

S. aureus ATCC 25923 [2] = assay: Antibacterial activity, post-exposure on preformed 18-h-old biofilms; assay type: cell-based, Staphylococcus aureus; details: ± SD; for inhibition at 25 µM / inhibition at 50 µM / inhibition at 100 µM / inhibition at 200 µM: Staphylococcus aureus; for inhibition at 25 µM: ATCC25923, 25 µM; for inhibition at 50 µM: ATCC25923, 50 µM; for inhibition at 100 µM: ATCC25923, 100 µM; for inhibition at 200 µM: ATCC25923, 200 µM
Method in brief: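 Compounds were applied to preformed 18-h biofilms after medium change and left 24 h. Read-outs: planktonic OD plus resazurin fluorescence (20 μM), biofilm metabolic activity by resazurin 30 min at 37 °C, then biomass by crystal violet absorbance at 595 nm after ethanol fixation.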

A. baumannii NCTC 13423 = assay: Antibacterial activity, pre-exposure; assay type: cell-based, Acinetobacter baumannii; details: for Average inhibition %, biofilms viability / Average inhibition %, planktonic cells viability / inhibition at 10 µM / inhibition at 15 µM / inhibition at 25 µM / inhibition at 50 µM: A. baumannii NCTC 13423, pre-exposure, ± SD; for inhibition at 10 µM / inhibition at 15 µM / inhibition at 25 µM / inhibition at 50 µM / MIC: Acinetobacter baumannii, NCTC13423
Method in brief: as §1

P. aeruginosa ATCC 9027 = assay: Antibacterial activity, pre-exposure; assay type: cell-based, Pseudomonas aeruginosa; details: for Average inhibition %, biofilms viability / Average inhibition %, planktonic cells viability / inhibition at 50 µM / inhibition at 100 µM / inhibition at 150 µM / inhibition at 200 µM: P. aeruginosa ATCC 9027, pre-exposure, ± SD; for inhibition at 50 µM / inhibition at 100 µM / inhibition at 150 µM / inhibition at 200 µM: Pseudomonas aeruginosa, ATCC9027
Method in brief: as §1

[3] = 10 µM, read-out: Average inhibition %, biofilms biomass
[4] = 10 µM, read-out: Average inhibition %, planktonic cells turbidity
[5] = 15 µM, read-out: Average inhibition %, biofilms biomass
[6] = 15 µM, read-out: Average inhibition %, planktonic cells turbidity
[7] = 25 µM, read-out: Average inhibition %, biofilms biomass
[8] = 25 µM, read-out: Average inhibition %, planktonic cells turbidity
[9] = read-out: Average inhibition %, biofilms biomass
[10] = read-out: Average inhibition %, planktonic cells turbidity
[11] = 50 µM, read-out: Average inhibition %, biofilms biomass
[12] = 50 µM, read-out: Average inhibition %, planktonic cells turbidity

Structure (SMILES): CCCCCCCCCCc1ccc2nc(CC(N)(CO)CO)ccc2c1 [Compound 83, 2-Amino-2-[(6-decylquinolin-2-yl)methyl]propane-1,3-diol]
- MIC (S. aureus ATCC 25923 [1]; lowest concentration with no visible growth (>90% inhibition of turbidity and viability of planktonic cells), 18 h, read-out: MIC S. aureus ATCC 25923): 10 µM (≈ 3.73 µg/mL)
- inhibition at 5 µM (S. aureus ATCC 25923 [1]; 5 µM, read-out: Average inhibition %, biofilms biomass): 37.3 ± 7.9%
- inhibition at 5 µM (S. aureus ATCC 25923 [1]; 5 µM, read-out: Average inhibition %, planktonic cells turbidity): 37.9 ± 5.1%
- inhibition at 10 µM (S. aureus ATCC 25923 [1]; [3]): 97.3 ± 0.8%
- inhibition at 10 µM (S. aureus ATCC 25923 [1]; [4]): 99.5 ± 0.2%
- inhibition at 15 µM (S. aureus ATCC 25923 [1]; [5]): 93.9 ± 1.4%
- inhibition at 15 µM (S. aureus ATCC 25923 [1]; [6]): 99.4 ± 0.1%
- inhibition at 25 µM (S. aureus ATCC 25923 [1]; [7]): 89.4 ± 1.4%
- inhibition at 25 µM (S. aureus ATCC 25923 [1]; [8]): 99 ± 0.2%
- MIC (S. aureus ATCC 25923 [1]; read-out: MIC (S. aureus)): 10 µM (≈ 3.73 µg/mL)
- Average inhibition %, biofilms viability (S. aureus ATCC 25923 [1]; 5 µM): 34.6 ± 5.8%
- Average inhibition %, planktonic cells viability (S. aureus ATCC 25923 [1]; 5 µM): 6.9 ± 10.7%
- Average inhibition %, biofilms viability (S. aureus ATCC 25923 [1]; 10 µM): 99.6 ± 0.4%
- Average inhibition %, planktonic cells viability (S. aureus ATCC 25923 [1]; 10 µM): 99.6 ± 0%
- Average inhibition %, biofilms viability (S. aureus ATCC 25923 [1]; 15 µM): 99.8 ± 0.6%
- Average inhibition %, planktonic cells viability (S. aureus ATCC 25923 [1]; 15 µM): 99.6 ± 0%
- Average inhibition %, biofilms viability (S. aureus ATCC 25923 [1]; 25 µM): 99.6 ± 0.4%
- Average inhibition %, planktonic cells viability (S. aureus ATCC 25923 [1]; 25 µM): 99.7 ± 0%
- Average inhibition %, biofilms viability (S. aureus ATCC 25923 [2]; 25 µM): 16.8 ± 17.2%
- Average inhibition %, planktonic cells viability (S. aureus ATCC 25923 [2]; 25 µM): 14.1 ± 20.9%
- Average inhibition %, biofilms viability (S. aureus ATCC 25923 [2]; 50 µM): 34.4 ± 15.3%
- Average inhibition %, planktonic cells viability (S. aureus ATCC 25923 [2]; 50 µM): 22.7 ± 19.5%
- Average inhibition %, biofilms viability (S. aureus ATCC 25923 [2]; 100 µM): 56.6 ± 18.2%
- Average inhibition %, planktonic cells viability (S. aureus ATCC 25923 [2]; 100 µM): 80.3 ± 17.9%
- Average inhibition %, biofilms viability (S. aureus ATCC 25923 [2]; 200 µM): 58.6 ± 19.5%
- Average inhibition %, planktonic cells viability (S. aureus ATCC 25923 [2]; 200 µM): 88.3 ± 12.1%
- inhibition at 25 µM (S. aureus ATCC 25923 [2]; [9]): 31.7 ± 20.9%
- inhibition at 25 µM (S. aureus ATCC 25923 [2]; [10]): 27.1 ± 19.8%
- inhibition at 50 µM (S. aureus ATCC 25923 [2]; [9]): 50.3 ± 6.4%
- inhibition at 50 µM (S. aureus ATCC 25923 [2]; [10]): 28.3 ± 13.2%
- inhibition at 100 µM (S. aureus ATCC 25923 [2]; [9]): 71.3 ± 10.2%
- inhibition at 100 µM (S. aureus ATCC 25923 [2]; [10]): 64.4 ± 14%
- inhibition at 200 µM (S. aureus ATCC 25923 [2]; [9]): 71.5 ± 5.8%
- inhibition at 200 µM (S. aureus ATCC 25923 [2]; [10]): 65.3 ± 5.8%
- Average inhibition %, biofilms viability (A. baumannii NCTC 13423; 10 µM): 0.7 ± 1.2%
- Average inhibition %, planktonic cells viability (A. baumannii NCTC 13423; 10 µM): 8 ± 5.8%
- Average inhibition %, biofilms viability (A. baumannii NCTC 13423; 15 µM): 1.2 ± 2.2%
- Average inhibition %, planktonic cells viability (A. baumannii NCTC 13423; 15 µM): 7.2 ± 6.6%
- Average inhibition %, biofilms viability (A. baumannii NCTC 13423; 25 µM): 5.6 ± 6.6%
- Average inhibition %, planktonic cells viability (A. baumannii NCTC 13423; 25 µM): 3.1 ± 3.1%
- Average inhibition %, biofilms viability (A. baumannii NCTC 13423; 50 µM): 68.9 ± 2.6%
- Average inhibition %, planktonic cells viability (A. baumannii NCTC 13423; 50 µM): 95.2 ± 1.7%
- inhibition at 10 µM (A. baumannii NCTC 13423; [3]): 6.4 ± 9.4%
- inhibition at 10 µM (A. baumannii NCTC 13423; [4]): 0%
- inhibition at 15 µM (A. baumannii NCTC 13423; [5]): 0%
- inhibition at 15 µM (A. baumannii NCTC 13423; [6]): 0%
- inhibition at 25 µM (A. baumannii NCTC 13423; [7]): 0%
- inhibition at 25 µM (A. baumannii NCTC 13423; [8]): 11.8 ± 12.4%
- inhibition at 50 µM (A. baumannii NCTC 13423; [11]): 10.4 ± 10.2%
- inhibition at 50 µM (A. baumannii NCTC 13423; [12]): 88.3 ± 1.5%
- MIC (A. baumannii NCTC 13423; pre-exposure, Inactive = no activity up to 50 μM, > = some inhibition but no MIC reached, read-out: MIC A. baumannii NCTC 13423): > 50 µM
- MIC (A. baumannii NCTC 13423; supplementary molecular formula strings sheet, read-out: MIC (A. baumannii)): > 50 µM
- Average inhibition %, biofilms viability (P. aeruginosa ATCC 9027; 50 µM): 12.2 ± 21.1%
- Average inhibition %, planktonic cells viability (P. aeruginosa ATCC 9027; 50 µM): 10.5 ± 6.5%
- Average inhibition %, biofilms viability (P. aeruginosa ATCC 9027; 100 µM): 0.5 ± 0.9%
- Average inhibition %, planktonic cells viability (P. aeruginosa ATCC 9027; 100 µM): 14.8 ± 0.4%
- Average inhibition %, biofilms viability (P. aeruginosa ATCC 9027; 150 µM): 2.6 ± 3.8%
- Average inhibition %, planktonic cells viability (P. aeruginosa ATCC 9027; 150 µM): 20.2 ± 15%
- Average inhibition %, biofilms viability (P. aeruginosa ATCC 9027; 200 µM): 1.1 ± 1%
- Average inhibition %, planktonic cells viability (P. aeruginosa ATCC 9027; 200 µM): 16.3 ± 15.7%
- inhibition at 50 µM (P. aeruginosa ATCC 9027; [11]): 6.4 ± 11.1%
- inhibition at 50 µM (P. aeruginosa ATCC 9027; [12]): 35.2 ± 3%
- inhibition at 100 µM (P. aeruginosa ATCC 9027; 100 µM, read-out: Average inhibition %, biofilms biomass): 2.1 ± 2.3%
- inhibition at 100 µM (P. aeruginosa ATCC 9027; 100 µM, read-out: Average inhibition %, planktonic cells turbidity): 38.6 ± 10.1%
- inhibition at 150 µM (P. aeruginosa ATCC 9027; 150 µM, read-out: Average inhibition %, biofilms biomass): 1.3 ± 2.3%
- inhibition at 150 µM (P. aeruginosa ATCC 9027; 150 µM, read-out: Average inhibition %, planktonic cells turbidity): 34.8 ± 16.4%
- inhibition at 200 µM (P. aeruginosa ATCC 9027; 200 µM, read-out: Average inhibition %, biofilms biomass): 3.7 ± 4.7%
- inhibition at 200 µM (P. aeruginosa ATCC 9027; 200 µM, read-out: Average inhibition %, planktonic cells turbidity): 33.2 ± 7.3%
- MIC P. aeruginosa ATCC 9027 (P. aeruginosa ATCC 9027; pre-exposure, Inactive = no activity up to 200 μM, > = some inhibition but no MIC reached): Inactive
